Reference: PubChem BioAssay (NCI)
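Tested at 5 concentrations; 48 h exposure; 96-well plates; endpoints linearly interpolated, else capped at highest concentration. Here, GI50 denotes the concentration required for 50% inhibition of growth. Definition used: TGI = concentration required for complete inhibition of growth.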

Experiments:
Experiment in all cases: NCI anticancer screen, dose series, 48 h
[1] = test system: U251 CNS
[2] = test system: SR leukemia
[3] = test system: SNB-19 CNS
[4] = test system: A498 renal
[5] = test system: RPMI-8226 leukemia
[6] = test system: SF-268 CNS
[7] = test system: NCI/ADR-RES ovarian
[8] = test system: ACHN renal
[9] = test system: KM12 colon
[10] = test system: UACC-257 melanoma
[11] = test system: SNB-75 CNS
[12] = test system: OVCAR-8 ovarian
[13] = test system: A549 NSCLC
[14] = test system: COLO 205 colon
[15] = test system: HCC-2998 colon
[16] = test system: M14 melanoma
[17] = test system: NCI-H23 lung
[18] = test system: MOLT-4 leukemia
[19] = test system: SF-539 CNS
[20] = test system: OVCAR-3 ovarian
[21] = test system: PC-3 prostate
[22] = test system: MDA-MB-231 breast
[23] = test system: SN12C renal
[24] = test system: HCT-15 colon
[25] = test system: HS 578T breast
[26] = test system: CCRF-CEM leukemia
[27] = test system: MALME-3M melanoma
[28] = test system: CAKI-1 renal
[29] = test system: MCF7 breast

Compound `CCN(CC)CCn1c2ccc(O)cc2c2sc3cc(OC)ccc3c(=O)c21` has a TGI [1] of 3.34 µM, a GI50 [2] of 1.11 µM and a TGI [2] of 3.15 µM. It also gave a GI50 [3] of 1.51 µM, a TGI [3] of 3.41 µM and a GI50 [4] of 3.08 µM. For the same compound, the TGI [4] was 16.5 µM, the GI50 [5] was 1.95 µM and the TGI [5] was 4.88 µM. The GI50 [6] was 7.34 µM, the TGI [6] was 24.5 µM and the GI50 [7] was 1.23 µM. The TGI [7] was 4.01 µM, the GI50 [8] was 1.13 µM and the TGI [8] was 2.44 µM. It also gave a GI50 [9] of 1.84 µM, a TGI [9] of 3.72 µM and a GI50 [10] of 2.1 µM. For the same compound, the TGI [10] was 4.68 µM, the GI50 [11] was 2.39 µM and the TGI [11] was 17.4 µM. The GI50 [12] was 2.1 µM, the TGI [12] was 7.26 µM and the GI50 [13] was 1.63 µM. The TGI [13] was 4.3 µM, the GI50 [14] was 3.08 µM and the TGI [14] was 17.9 µM. For the same compound, the GI50 [15] was 1.47 µM, the TGI [15] was 2.91 µM and the GI50 [16] was 1.64 µM. The TGI [16] was 3.31 µM, the GI50 [17] was 1.56 µM and the TGI [17] was 3.18 µM. For the same compound, the GI50 [18] was 0.389 µM, the TGI [18] was 1.71 µM and the GI50 [19] was 1.76 µM. It also gave a TGI [19] of 3.2 µM, a GI50 [20] of 2.19 µM and a TGI [20] of 4.88 µM. The GI50 [21] was 1.82 µM, the TGI [21] was 5.09 µM and the GI50 [22] was 1.61 µM. It also gave a TGI [22] of 3.71 µM, a GI50 [23] of 5.83 µM and a TGI [23] of 21.2 µM. For the same compound, the GI50 [24] was 1.2 µM, the TGI [24] was 3.28 µM and the GI50 [25] was 1.95 µM. For the same compound, the TGI [25] was 4.59 µM, the GI50 [26] was 1.09 µM and the TGI [26] was 4.5 µM. The GI50 [27] was 1.87 µM, the TGI [27] was 4.01 µM and the GI50 [28] was 3.73 µM. The TGI [28] was 17 µM, the GI50 [29] was 1.18 µM and the TGI [29] was 2.79 µM.
